Assays:
dominant rats = assay: Reduction of Dominant Behavior Model (RDBM) of mania, dominant-submissive rat food competition test; assay type: in vivo, Sprague-Dawley rats; details: 5 weeks, dominant rat treated
Text: In this study, the effects of COMPOUND #7 on dominant or submissive behavior in pairs of rats competing for food are examined. It has been shown that anti-manic drugs, including anticonvulsants, decrease dominance and antidepressant drugs reduce submissiveness. This model uses dominant behavior as a model of mania and submissive behavior as a model of depression. The dominance and submissiveness is defined in a competition test and measured as the relative success of two food-restricted rats to gain access to a feeder. Rats are randomly paired and placed in an apparatus allowing them to compete for a food reward. The dominant-submissive relationship develops over a 2-week period. The submissive or dominant animals in pairs selected after 2 weeks of training were treated orally […] (b.i.d.) with COMPOUND #7 at 3 or 30 mg/kg for 5 weeks. […]
The objective of this study was to determine if COMPOUND #7 is active in the Reduction of Submissive Behavior Model (RSBM) of depression and the Reduction of Dominant Behavior Model (RDBM) of mania. […] The endpoints measured were the development of a significant reduction of submissive or dominant behavior and its time of onset. […]
The test involves placing each member of a pair in opposite chambers of the testing apparatus. […] The test is conducted once a day over a 5-minute period and the time spent on the feeder by each animal is recorded. […]

male mice = assay: General behavior of male mice, visual observation using a checklist of behaviors; assay type: in vivo; details: for Number of Mice Affected: Decreased Open Field Activity / Number of Mice Affected: Decreased Startle Reflex / Number of Mice Affected: Extensor Limb Tone (hind limb) / Number of Mice Affected: Impaired Horizontal Screen Performance / Number of Mice Affected: Impaired Visual Placing Reflex / Number of Mice Affected: Locomotor Ataxia / Number of Mice Affected: Loss of Corneal Reflex / Number of Mice Affected: Loss of Pinnal Reflex / Number of Mice Affected: Loss of Righting Reflex / Number of Mice Affected: Passive Response to Handling / Number of Mice Affected: Reduced Skin Plasticity / Number of Mice Affected: Soft Body Tone / Number of Mice Affected: Tail Pinch Response, Absent: N = 3/group;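 on all read-outs here: oral administration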
Procedure: The effects of test compound on general behavior were evaluated by visual observation using a checklist of behaviors.

With `NC(=O)OC[C@@H](O)c1ccccc1Cl` [COMPOUND #7] the “Effect on performance (competitiveness) of dominant rats” value (dominant rats; 3 mg/kg b.i.d. p.o.) was “decreased the performance”, the “Effect on performance (competitiveness) of dominant rats” value (dominant rats; 30 mg/kg b.i.d. p.o.) was “significantly increased the competitiveness” and the “Number of Mice Affected: Decreased Open Field Activity” value (male mice; 40 mg/kg p.o., 1 h) was 0. For the same compound, the “Number of Mice Affected: Decreased Startle Reflex” value (from here on “Number … Decreased Startle Reflex”) (male mice; 40 mg/kg p.o., 1 h) was 0, the “Number of Mice Affected: Extensor Limb Tone (hind limb)” value (shortened to “Number of Mice Affected … (hind limb)”) (male mice; 40 mg/kg p.o., 1 h) was 0 and the “Number of Mice Affected: Impaired Horizontal Screen Performance” value (male mice; 40 mg/kg p.o., 1 h) was 0. The “Number of Mice Affected: Impaired Visual Placing Reflex” value (male mice; 40 mg/kg p.o., 1 h) was 0, the “Number of Mice Affected: Locomotor Ataxia” value (from here on “Number … Locomotor Ataxia”) (male mice; 40 mg/kg p.o., 1 h) was 0 and the “Number of Mice Affected: Loss of Corneal Reflex” value (shortened to “Number … Loss of Corneal Reflex”) (male mice; 40 mg/kg p.o., 1 h) was 0. For the same compound, the “Number of Mice Affected: Loss of Pinnal Reflex” value (from here on “Number … Loss of Pinnal Reflex”) (male mice; 40 mg/kg p.o., 1 h) was 0, the “Number of Mice Affected: Loss of Righting Reflex” value (“Number … Loss of Righting Reflex” below) (male mice; 40 mg/kg p.o., 1 h) was 0 and the “Number of Mice Affected: Passive Response to Handling” value (“Number of Mice Affected … to Handling” for short) (male mice; 40 mg/kg p.o., 1 h) was 0. The “Number of Mice Affected: Reduced Skin Plasticity” value (shortened to “Number … Reduced Skin Plasticity”) (male mice; 40 mg/kg p.o., 1 h) was 0, the “Number of Mice Affected: Soft Body Tone” value (male mice; 40 mg/kg p.o., 1 h) was 0 and the “Number of Mice Affected: Tail Pinch Response, Absent” value (shortened to “Number of Mice Affected … Absent”) (male mice; 40 mg/kg p.o., 1 h) was 0. The “Number of Mice Affected: Decreased Open Field Activity” value (male mice; 40 mg/kg p.o., 4 h) was 0, the “Number … Decreased Startle Reflex” value (male mice; 40 mg/kg p.o., 4 h) was 0 and the “Number of Mice Affected … (hind limb)” value (male mice; 40 mg/kg p.o., 4 h) was 0. The “Number of Mice Affected: Impaired Horizontal Screen Performance” value (male mice; 40 mg/kg p.o., 4 h) was 0, the “Number of Mice Affected: Impaired Visual Placing Reflex” value (male mice; 40 mg/kg p.o., 4 h) was 0 and the “Number … Locomotor Ataxia” value (male mice; 40 mg/kg p.o., 4 h) was 0. For the same compound, the “Number … Loss of Corneal Reflex” value (male mice; 40 mg/kg p.o., 4 h) was 0, the “Number … Loss of Pinnal Reflex” value (male mice; 40 mg/kg p.o., 4 h) was 0 and the “Number … Loss of Righting Reflex” value (male mice; 40 mg/kg p.o., 4 h) was 0. The “Number of Mice Affected … to Handling” value (male mice; 40 mg/kg p.o., 4 h) was 0, the “Number … Reduced Skin Plasticity” value (male mice; 40 mg/kg p.o., 4 h) was 0 and the “Number of Mice Affected: Soft Body Tone” value (male mice; 40 mg/kg p.o., 4 h) was 0. The “Number of Mice Affected … Absent” value (male mice; 40 mg/kg p.o., 4 h) was 0, the “Number of Mice Affected: Decreased Open Field Activity” value (male mice; 100 mg/kg p.o., 1 h) was 0 and the “Number … Decreased Startle Reflex” value (male mice; 100 mg/kg p.o., 1 h) was 0. The “Number of Mice Affected … (hind limb)” value (male mice; 100 mg/kg p.o., 1 h) was 0, the “Number of Mice Affected: Impaired Horizontal Screen Performance” value (male mice; 100 mg/kg p.o., 1 h) was 0 and the “Number of Mice Affected: Impaired Visual Placing Reflex” value (male mice; 100 mg/kg p.o., 1 h) was 0. The “Number … Locomotor Ataxia” value (male mice; 100 mg/kg p.o., 1 h) was 0, the “Number … Loss of Corneal Reflex” value (male mice; 100 mg/kg p.o., 1 h) was 0 and the “Number … Loss of Pinnal Reflex” value (male mice; 100 mg/kg p.o., 1 h) was 0. For the same compound, the “Number … Loss of Righting Reflex” value (male mice; 100 mg/kg p.o., 1 h) was 0, the “Number of Mice Affected … to Handling” value (male mice; 100 mg/kg p.o., 1 h) was 0 and the “Number … Reduced Skin Plasticity” value (male mice; 100 mg/kg p.o., 1 h) was 0. The “Number of Mice Affected: Soft Body Tone” value (male mice; 100 mg/kg p.o., 1 h) was 0, the “Number of Mice Affected … Absent” value (male mice; 100 mg/kg p.o., 1 h) was 0 and the “Number of Mice Affected: Decreased Open Field Activity” value (male mice; 100 mg/kg p.o., 4 h) was 0. For the same compound, the “Number … Decreased Startle Reflex” value (male mice; 100 mg/kg p.o., 4 h) was 0, the “Number of Mice Affected … (hind limb)” value (male mice; 100 mg/kg p.o., 4 h) was 0 and the “Number of Mice Affected: Impaired Horizontal Screen Performance” value (male mice; 100 mg/kg p.o., 4 h) was 0. For the same compound, the “Number of Mice Affected: Impaired Visual Placing Reflex” value (male mice; 100 mg/kg p.o., 4 h) was 0, the “Number … Locomotor Ataxia” value (male mice; 100 mg/kg p.o., 4 h) was 0 and the “Number … Loss of Corneal Reflex” value (male mice; 100 mg/kg p.o., 4 h) was 0. The “Number … Loss of Pinnal Reflex” value (male mice; 100 mg/kg p.o., 4 h) was 0, the “Number … Loss of Righting Reflex” value (male mice; 100 mg/kg p.o., 4 h) was 0 and the “Number of Mice Affected … to Handling” value (male mice; 100 mg/kg p.o., 4 h) was 0. For the same compound, the “Number … Reduced Skin Plasticity” value (male mice; 100 mg/kg p.o., 4 h) was 0, the “Number of Mice Affected: Soft Body Tone” value (male mice; 100 mg/kg p.o., 4 h) was 0 and the “Number of Mice Affected … Absent” value (male mice; 100 mg/kg p.o., 4 h) was 0. The “Behavioral or physical signs (general behavior)” value (male mice; 300 mg/kg p.o.) was “produced sedation”, the “Number of Mice Affected: Decreased Open Field Activity” value (male mice; 300 mg/kg p.o., 1 h) was 3 and the “Number … Decreased Startle Reflex” value (male mice; 300 mg/kg p.o., 1 h) was 3. The “Number of Mice Affected … (hind limb)” value (male mice; 300 mg/kg p.o., 1 h) was 3, the “Number of Mice Affected: Impaired Horizontal Screen Performance” value (male mice; 300 mg/kg p.o., 1 h) was 3 and the “Number of Mice Affected: Impaired Visual Placing Reflex” value (male mice; 300 mg/kg p.o., 1 h) was 3. For the same compound, the “Number … Locomotor Ataxia” value (male mice; 300 mg/kg p.o., 1 h) was 0, the “Number … Loss of Corneal Reflex” value (male mice; 300 mg/kg p.o., 1 h) was 3 and the “Number … Loss of Pinnal Reflex” value (male mice; 300 mg/kg p.o., 1 h) was 3. For the same compound, the “Number … Loss of Righting Reflex” value (male mice; 300 mg/kg p.o., 1 h) was 3, the “Number of Mice Affected … to Handling” value (male mice; 300 mg/kg p.o., 1 h) was 3 and the “Number … Reduced Skin Plasticity” value (male mice; 300 mg/kg p.o., 1 h) was 3. For the same compound, the “Number of Mice Affected: Soft Body Tone” value (male mice; 300 mg/kg p.o., 1 h) was 3, the “Number of Mice Affected … Absent” value (male mice; 300 mg/kg p.o., 1 h) was 3 and the “Number of Mice Affected: Decreased Open Field Activity” value (male mice; 300 mg/kg p.o., 4 h) was 2. For the same compound, the “Number … Decreased Startle Reflex” value (male mice; 300 mg/kg p.o., 4 h) was 0, the “Number of Mice Affected … (hind limb)” value (male mice; 300 mg/kg p.o., 4 h) was 2 and the “Number of Mice Affected: Impaired Horizontal Screen Performance” value (male mice; 300 mg/kg p.o., 4 h) was 2. The “Number of Mice Affected: Impaired Visual Placing Reflex” value (male mice; 300 mg/kg p.o., 4 h) was 0, the “Number … Locomotor Ataxia” value (male mice; 300 mg/kg p.o., 4 h) was 2 and the “Number … Loss of Corneal Reflex” value (male mice; 300 mg/kg p.o., 4 h) was 0. The “Number … Loss of Pinnal Reflex” value (male mice; 300 mg/kg p.o., 4 h) was 0, the “Number … Loss of Righting Reflex” value (male mice; 300 mg/kg p.o., 4 h) was 0 and the “Number of Mice Affected … to Handling” value (male mice; 300 mg/kg p.o., 4 h) was 0. The “Number … Reduced Skin Plasticity” value (male mice; 300 mg/kg p.o., 4 h) was 0, the “Number of Mice Affected: Soft Body Tone” value (male mice; 300 mg/kg p.o., 4 h) was 2 and the “Number of Mice Affected … Absent” value (male mice; 300 mg/kg p.o., 4 h) was 0. The “Behavioral or physical signs (general behavior)” value (male mice; doses up to 100 mg/kg p.o.) was “No behavioral or physical signs were observed”.

Reference: US20080103199A1, “TREATMENT OF PERVASIVE DEVELOPMENTAL DISORDERS” (priority 2006, published 2008)
